The experiment deals with T1, Androgen Receptor dual T878A/L702H mutant protein (Homo sapiens, UniProt P10275, L702H/T878A).
T1 construct: host or cells: MDA-PCa-2b
T1 sequence (P10275 1-920 L702H/T878A): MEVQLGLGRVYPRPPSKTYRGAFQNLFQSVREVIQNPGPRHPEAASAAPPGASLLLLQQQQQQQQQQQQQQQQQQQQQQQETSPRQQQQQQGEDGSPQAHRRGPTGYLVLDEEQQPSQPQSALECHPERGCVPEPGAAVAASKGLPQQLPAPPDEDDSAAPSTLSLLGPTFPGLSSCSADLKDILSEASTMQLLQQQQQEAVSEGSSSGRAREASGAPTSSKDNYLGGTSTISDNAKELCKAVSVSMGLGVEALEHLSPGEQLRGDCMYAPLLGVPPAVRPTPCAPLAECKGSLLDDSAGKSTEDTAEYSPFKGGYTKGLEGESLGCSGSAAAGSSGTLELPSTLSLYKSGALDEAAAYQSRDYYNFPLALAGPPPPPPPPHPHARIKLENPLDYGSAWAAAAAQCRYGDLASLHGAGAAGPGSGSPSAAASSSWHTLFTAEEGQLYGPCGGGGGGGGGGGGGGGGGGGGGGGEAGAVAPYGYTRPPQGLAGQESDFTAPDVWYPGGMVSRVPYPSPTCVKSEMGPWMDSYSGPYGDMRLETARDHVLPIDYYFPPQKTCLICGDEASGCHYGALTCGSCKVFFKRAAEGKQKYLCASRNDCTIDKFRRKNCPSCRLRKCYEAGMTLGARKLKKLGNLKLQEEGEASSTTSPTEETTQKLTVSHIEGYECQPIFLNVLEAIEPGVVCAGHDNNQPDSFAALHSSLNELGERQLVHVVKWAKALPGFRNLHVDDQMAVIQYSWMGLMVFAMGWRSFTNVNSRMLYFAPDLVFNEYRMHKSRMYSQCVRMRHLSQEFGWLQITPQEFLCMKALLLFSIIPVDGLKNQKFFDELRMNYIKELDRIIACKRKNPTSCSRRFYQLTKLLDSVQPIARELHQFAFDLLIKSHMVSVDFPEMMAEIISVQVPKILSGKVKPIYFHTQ
Kind of experiment: Dual Mutant (T878A/L702H) Androgen Receptor Degradation Assay (HTRF, MDA-PCa-2b cells). The experiment is classed as cell-based. The following applies: 18 h, 18 h incubation, read-out: mean asymptote max. In a few lines: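 PROTACs tested as 11-point, 3-fold dilutions on 10,000 cells for 18 h at 37 °C. Remaining AR read by HTRF (665/620 nm ratio) after lysis, normalised to DMSO-treated cells (0%) and cell-free medium (100%). Relative DC50 from 4-parameter fit inflection, absolute DC50 interpolated at 50% degradation; Dmax is maximum observed degradation.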
(In general: TR-FRET usually uses a lanthanide donor and a delayed reading to cut background.)
`CC1(C)[C@H](NC(=O)c2ccc(N3CCC(CN4CCC(n5ncc6c(N7CCC(=O)NC7=O)ccnc65)CC4)CC3)c(F)c2)C(C)(C)[C@H]1Oc1ccc(C#N)c2ncccc12` [Example 40, N-((1r,3r)-3-((8-Cyanoquinolin-5-yl)oxy)-2,2,4,4-tetramethylcyclobutyl)-4-(4-((4-(4-(2,4-dioxotetrahydropyrimidin-1(2H)-yl)-1H-pyrazolo[3,4-b]pyridin-1-yl)piperidin-1-yl)methyl)piperidin-1-yl)-3-fluorobenzamide]: the Dmax is not below 50%.

As to `CC1(C)[C@H](NC(=O)c2ccc(N3CCC(CN4CCC(n5ncc6c(N7CCC(=O)NC7=O)cc(C(F)(F)F)cc65)CC4)CC3)c(F)c2)C(C)(C)[C@H]1Oc1ccc(C#N)c2ncccc12` [Example 42, N-((1r,3r)-3-((8-Cyanoquinolin-5-yl)oxy)-2,2,4,4-tetramethylcyclobutyl)-4-(4-((4-(4-(2,4-dioxotetrahydropyrimidin-1(2H)-yl)-6-(trifluoromethyl)-1H-indazol-1-yl)piperidin-1-yl)methyl)piperidin-1-yl)-3-fluorobenzamide], the Dmax was not below 50%.

Turning to `CC1(C)[C@H](NC(=O)c2ccc(N3CC[C@@H](CN4CCC(n5ncc6c(N7CCC(=O)NC7=O)cccc65)CC4)C3)c(F)c2)C(C)(C)[C@H]1Oc1ccc(C#N)c2ncccc12` [Example 33, N-((1r,3S)-3-((8-Cyanoquinolin-5-yl)oxy)-2,2,4,4-tetramethylcyclobutyl)-4-((S)-3-((4-(4-(2,4-dioxotetrahydropyrimidin-1(2H)-yl)-1H-indazol-1-yl)piperidin-1-yl)methyl)pyrrolidin-1-yl)-3-fluorobenzamide], the Dmax was not below 50%.

Take `CC1(C)[C@H](NC(=O)c2ccc(N3CCC(CN4CCC(n5ccc6c(N7CCC(=O)NC7=O)c(F)ccc65)CC4)CC3)c(F)c2)C(C)(C)[C@H]1Oc1ccc(C#N)c2ncccc12` [Example 51, N-((1r,3r)-3-((8-Cyanoquinolin-5-yl)oxy)-2,2,4,4-tetramethylcyclobutyl)-4-(4-((4-(4-(2,4-dioxotetrahydropyrimidin-1(2H)-yl)-5-fluoro-1H-indol-1-yl)piperidin-1-yl)methyl)piperidin-1-yl)-3-fluorobenzamide]: the Dmax is not below 50%.

For `CC1(C)[C@H](NC(=O)c2ccc(N3CCC(CN4CCC(n5ncc6c(N7CCC(=O)NC7=O)c(F)ccc65)CC4)CC3)c(F)c2)C(C)(C)[C@H]1Oc1ccc(C#N)c(Cl)c1` [Example 13, N-((1r,3r)-3-(3-Chloro-4-cyanophenoxy)-2,2,4,4-tetramethylcyclobutyl)-4-(4-((4-(4-(2,4-dioxotetrahydropyrimidin-1(2H)-yl)-5-fluoro-1H-indazol-1-yl)piperidin-1-yl)methyl)piperidin-1-yl)-3-fluorobenzamide], the Dmax is not below 50%.

As for `COc1cc(O[C@H]2C(C)(C)[C@H](NC(=O)c3ccc(N4CCC(CN5CCC(n6ccc7c(N8CCC(=O)NC8=O)cccc76)CC5)CC4)cc3)C2(C)C)ccc1C#N` [Example 16, N-((1r,3r)-3-(4-Cyano-3-methoxyphenoxy)-2,2,4,4-tetramethylcyclobutyl)-4-(4-((4-(4-(2,4-dioxotetrahydropyrimidin-1(2H)-yl)-1H-indol-1-yl)piperidin-1-yl)methyl)piperidin-1-yl)benzamide], the Dmax is not below 50%.

Take `CC1(C)[C@H](NC(=O)c2ccc(N3CCC(CN4CC[C@@H](n5ncc6c(N7CCC(=O)NC7=O)cccc65)C4)CC3)c(F)c2)C(C)(C)[C@H]1Oc1ccc(C#N)c2ncccc12` [Example 36, N-((1r,3r)-3-((8-Cyanoquinolin-5-yl)oxy)-2,2,4,4-tetramethylcyclobutyl)-4-(4-(((R)-3-(4-(2,4-dioxotetrahydropyrimidin-1(2H)-yl)-1H-indazol-1-yl)pyrrolidin-1-yl)methyl)piperidin-1-yl)-3-fluorobenzamide]: the Dmax was determined as 41%.

With `CC1(C)[C@H](NC(=O)c2ccc(N3CCC(CN4CCC(n5ccc6c(N7CCC(=O)NC7=O)ncnc65)CC4)CC3)c(F)c2)C(C)(C)[C@H]1Oc1ccc(C#N)c2ncccc12` [Example 47, N-((1r,3r)-3-((8-Cyanoquinolin-5-yl)oxy)-2,2,4,4-tetramethylcyclobutyl)-4-(4-((4-(4-(2,4-dioxotetrahydropyrimidin-1(2H)-yl)-7H-pyrrolo[2,3-d]pyrimidin-7-yl)piperidin-1-yl)methyl)piperidin-1-yl)-3-fluorobenzamide], the Dmax was not below 50%.

For `CC1(C)[C@H](NC(=O)c2ccc(N3CCC(CN4CCC(n5ncc6c(N7CCC(=O)NC7=O)c(F)ccc65)CC4)CC3)c(F)c2)C(C)(C)[C@H]1Oc1ccc(C#N)c2ncccc12` [Example 50, N-((1r,3r)-3-((8-Cyanoquinolin-5-yl)oxy)-2,2,4,4-tetramethylcyclobutyl)-4-(4-((4-(4-(2,4-dioxotetrahydropyrimidin-1(2H)-yl)-5-fluoro-1H-indazol-1-yl)piperidin-1-yl)methyl)piperidin-1-yl)-3-fluorobenzamide], the Dmax was not below 50%.

`CC1(C)[C@H](NC(=O)c2ccc(N3CCC4(CC3)CC(N3CCC(n5ncc6c(N7CCC(=O)NC7=O)cccc65)CC3)C4)c(F)c2)C(C)(C)[C@H]1Oc1ccc(C#N)c2ncccc12` [Example 49, N-((1r,3r)-3-((8-Cyanoquinolin-5-yl)oxy)-2,2,4,4-tetramethylcyclobutyl)-4-(2-(4-(4-(2,4-dioxotetrahydropyrimidin-1(2H)-yl)-1H-indazol-1-yl)piperidin-1-yl)-7-azaspiro[3.5]nonan-7-yl)-3-fluorobenzamide]: the Dmax is not below 50%.

Turning to `CC1(C)[C@H](NC(=O)c2ccc(N3CCC(CN4CC[C@H](n5ncc6c(N7CCC(=O)NC7=O)cccc65)[C@H](F)C4)CC3)c(F)c2)C(C)(C)[C@H]1Oc1ccc(C#N)c2ncccc12` [Example 46, N-((1r,3r)-3-((8-Cyanoquinolin-5-yl)oxy)-2,2,4,4-tetramethylcyclobutyl)-4-(4-(((3R,4S)-4-(4-(2,4-dioxotetrahydropyrimidin-1(2H)-yl)-1H-indazol-1-yl)-3-fluoropiperidin-1-yl)methyl)piperidin-1-yl)-3-fluorobenzamide], the Dmax was not below 50%.

In the case of `CC1(C)[C@H](NC(=O)c2ccc(N3CCC(CN4CCC(n5ncc6c(N7CCC(=O)NC7=O)cccc65)CC4)CC3)c(Cl)c2)C(C)(C)[C@H]1Oc1ccc(C#N)c2ncccc12` [Example 44, 3-Chloro-N-((1r,3r)-3-((8-cyanoquinolin-5-yl)oxy)-2,2,4,4-tetramethylcyclobutyl)-4-(4-((4-(4-(2,4-dioxotetrahydropyrimidin-1(2H)-yl)-1H-indazol-1-yl)piperidin-1-yl)methyl)piperidin-1-yl)benzamide], the Dmax is not below 50%.

`CC1(C)[C@H](NC(=O)c2ccc(N3CCC(CN4CC[C@H](n5ncc6c(N7CCC(=O)NC7=O)cccc65)C4)CC3)c(F)c2)C(C)(C)[C@H]1Oc1ccc(C#N)c2ncccc12` [Example 37, N-((1r,3r)-3-((8-Cyanoquinolin-5-yl)oxy)-2,2,4,4-tetramethylcyclobutyl)-4-(4-(((S)-3-(4-(2,4-dioxotetrahydropyrimidin-1(2H)-yl)-1H-indazol-1-yl)pyrrolidin-1-yl)methyl)piperidin-1-yl)-3-fluorobenzamide]: the Dmax is not below 50%.

The values above are taken from patent US12577231B2, “Androgen receptor PROTACS” (GlaxoSmithKline Intellectual Property Development Limited, priority 2023, dated 2026).
